Measured values: ChEMBL document CHEMBL1201862, “PubChem BioAssay data set” (2004)
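Test compounds were applied to cells in 96-well plates for 48 hours at 5 doses. Here, GI50 denotes the concentration required for 50% inhibition of growth.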 Active and inactive are the calls of the source. Rule as the data show it: active = GI50 up to about 1.1 µM and inactive = higher.

What was measured:
Experiment in all cases: inhibition of tumour cell growth, NCI panel, 48 h
M14 = tested on: M14
UO-31 = tested on: UO-31
EKVX = tested on: EKVX
SNB-19 = tested on: SNB-19
SF-268 = tested on: SF-268
HCT-116 = tested on: HCT-116
SF-295 = tested on: SF-295
MOLT-4 = tested on: MOLT-4
OVCAR-5 = tested on: OVCAR-5
SF-539 = tested on: SF-539
A498 = tested on: A498
RPMI-8226 = tested on: RPMI-8226
786-0 = tested on: 786-0
UACC-257 = tested on: UACC-257
ACHN = tested on: ACHN
UACC-62 = tested on: UACC-62
SK-OV-3 = tested on: SK-OV-3
SW-620 = tested on: SW-620
MCF7 = tested on: MCF7
Malme-3M = tested on: Malme-3M
HOP-62 = tested on: HOP-62
Hs-578T = tested on: Hs-578T
SNB-75 = tested on: SNB-75
HCC 2998 = tested on: HCC 2998
SN12C = tested on: SN12C
U-251 = tested on: U-251
T47D = tested on: T47D
NCI-H522 = tested on: NCI-H522
BT-549 = tested on: BT-549
COLO 205 = tested on: COLO 205
CAKI-1 = tested on: CAKI-1
SK-MEL-2 = tested on: SK-MEL-2
A549 = tested on: A549
MDA-N = tested on: MDA-N
NCI-H23 = tested on: NCI-H23
TK-10 = tested on: TK-10
NCI-H460 = tested on: NCI-H460
K562 = tested on: K562
MDA-MB-435 = tested on: MDA-MB-435
CCRF-CEM = tested on: CCRF-CEM
MDA-MB-231 = tested on: MDA-MB-231
OVCAR-3 = tested on: OVCAR-3
HCT-15 = tested on: HCT-15
OVCAR-8 = tested on: OVCAR-8
KM12 = tested on: KM12
HT-29 = tested on: HT-29
OVCAR-4 = tested on: OVCAR-4
NCI-H226 = tested on: NCI-H226
RXF 393 = tested on: RXF 393
IGROV-1 = tested on: IGROV-1
LOX IMVI = tested on: LOX IMVI
NCI/ADR-RES = tested on: NCI/ADR-RES
PC-3 = tested on: PC-3
SK-MEL-5 = tested on: SK-MEL-5
SR = tested on: SR
HOP-92 = tested on: HOP-92
DU-145 = tested on: DU-145
SK-MEL-28 = tested on: SK-MEL-28

## Cn1c(=O)c2c(no[n+]2[O-])c2ccccc21
M14
  GI50: 12.4 µM (inactive)
UO-31
  GI50: 24.3 µM (inactive)
EKVX
  GI50: 18.3 µM (inactive)
SNB-19
  GI50: 26.4 µM (inactive)
SF-268
  GI50: 20.5 µM (inactive)
HCT-116
  GI50: 12.9 µM (inactive)
SF-295
  GI50: 21.6 µM (inactive)
MOLT-4
  GI50: 10.5 µM (inactive)
OVCAR-5
  GI50: > 10 µM (inactive)
SF-539
  GI50: 25.8 µM (inactive)
A498
  GI50: 31.9 µM (inactive)
RPMI-8226
  GI50: 22.2 µM (inactive)
786-0
  GI50: 15.5 µM (inactive)
UACC-257
  GI50: 15.3 µM (inactive)
ACHN
  GI50: 26.5 µM (inactive)
UACC-62
  GI50: 16.7 µM (inactive)
SK-OV-3
  GI50: 33 µM (inactive)
SW-620
  GI50: 20 µM (inactive)
MCF7
  GI50: 24.7 µM (inactive)
Malme-3M
  GI50: 14.2 µM (inactive)
HOP-62
  GI50: 17.3 µM (inactive)
Hs-578T
  GI50: 23.3 µM (inactive)
SNB-75
  GI50: 18.6 µM (inactive)
HCC 2998
  GI50: 12.9 µM (inactive)
SN12C
  GI50: 22.8 µM (inactive)
U-251
  GI50: 15.8 µM (inactive)
T47D
  GI50: 21.6 µM (inactive)
NCI-H522
  GI50: 13.6 µM (inactive)
BT-549
  GI50: 15 µM (inactive)
COLO 205
  GI50: 17.7 µM (inactive)
CAKI-1
  GI50: 18.2 µM (inactive)
SK-MEL-2
  GI50: 12.4 µM (inactive)
A549
  GI50: 23.3 µM (inactive)
MDA-N
  GI50: 26.4 µM (inactive)
NCI-H23
  GI50: 15 µM (inactive)
TK-10
  GI50: 27.8 µM (inactive)
NCI-H460
  GI50: 17.8 µM (inactive)
K562
  GI50: 14.3 µM (inactive)
MDA-MB-435
  GI50: 24.8 µM (inactive)
CCRF-CEM
  GI50: 12.8 µM (inactive)
MDA-MB-231
  GI50: 19.7 µM (inactive)
OVCAR-3
  GI50: 22.1 µM (inactive)
HCT-15
  GI50: 11.1 µM
OVCAR-8
  GI50: 12.7 µM (inactive)
KM12
  GI50: 12.4 µM (inactive)
HT-29
  GI50: 17.5 µM (inactive)
OVCAR-4
  GI50: 18.4 µM (inactive)
NCI-H226
  GI50: 16.9 µM (inactive)
RXF 393
  GI50: 19.9 µM (inactive)
IGROV-1
  GI50: 7.24 µM (inactive)
LOX IMVI
  GI50: 10.9 µM (inactive)
NCI/ADR-RES
  GI50: 20.8 µM (inactive)
PC-3
  GI50: 24.9 µM (inactive)
SK-MEL-5
  GI50: 12.4 µM (inactive)
SR
  GI50: 5 µM (inactive)
HOP-92
  GI50: 20.2 µM (inactive)

## COC(=O)Cc1c(C(=O)CC(C)(C)n2cnc(CCN3C(=O)CCC3=O)c2)[nH]c2ccccc12
M14
  GI50: > 100 µM (inactive)
UO-31
  GI50: 37.5 µM (inactive)
EKVX
  GI50: > 100 µM (inactive)
SNB-19
  GI50: > 100 µM (inactive)
SF-268
  GI50: > 100 µM (inactive)
HCT-116
  GI50: > 100 µM (inactive)
SF-295
  GI50: > 100 µM (inactive)
MOLT-4
  GI50: > 100 µM (inactive)
OVCAR-5
  GI50: > 100 µM (inactive)
SF-539
  GI50: > 100 µM (inactive)
786-0
  GI50: > 100 µM (inactive)
UACC-257
  GI50: > 100 µM (inactive)
ACHN
  GI50: > 100 µM (inactive)
UACC-62
  GI50: > 100 µM (inactive)
SK-OV-3
  GI50: > 100 µM (inactive)
SW-620
  GI50: > 100 µM (inactive)
MCF7
  GI50: > 100 µM (inactive)
Malme-3M
  GI50: > 100 µM (inactive)
Hs-578T
  GI50: > 100 µM (inactive)
SNB-75
  GI50: 27 µM (inactive)
SN12C
  GI50: > 100 µM (inactive)
U-251
  GI50: > 100 µM (inactive)
NCI-H522
  GI50: 32.4 µM (inactive)
BT-549
  GI50: > 100 µM (inactive)
COLO 205
  GI50: > 100 µM (inactive)
DU-145
  GI50: > 100 µM (inactive)
CAKI-1
  GI50: > 100 µM (inactive)
SK-MEL-2
  GI50: > 100 µM (inactive)
A549
  GI50: > 100 µM (inactive)
MDA-N
  GI50: > 100 µM (inactive)
NCI-H23
  GI50: > 100 µM (inactive)
TK-10
  GI50: > 100 µM (inactive)
NCI-H460
  GI50: > 100 µM (inactive)
K562
  GI50: > 100 µM (inactive)
MDA-MB-435
  GI50: > 100 µM (inactive)
CCRF-CEM
  GI50: > 100 µM (inactive)
MDA-MB-231
  GI50: > 100 µM (inactive)
OVCAR-3
  GI50: > 100 µM (inactive)
HCT-15
  GI50: > 100 µM
OVCAR-8
  GI50: > 100 µM (inactive)
KM12
  GI50: > 100 µM (inactive)
HT-29
  GI50: > 100 µM (inactive)
OVCAR-4
  GI50: > 100 µM (inactive)
NCI-H226
  GI50: > 100 µM (inactive)
RXF 393
  GI50: 15.4 µM (inactive)
SK-MEL-28
  GI50: > 100 µM (inactive)
IGROV-1
  GI50: 89.3 µM (inactive)
LOX IMVI
  GI50: > 100 µM (inactive)
NCI/ADR-RES
  GI50: > 100 µM (inactive)
PC-3
  GI50: > 100 µM (inactive)
SK-MEL-5
  GI50: > 100 µM (inactive)
SR
  GI50: 34.5 µM (inactive)
HOP-92
  GI50: 15 µM (inactive)
